According to patent US20230192686A1, “1H-PYRROLO[2,3-B]PYRIDINES AND PREPARATION AND USES THEREOF” (BioSplice Therapeutics, Inc., priority 2021, published 2023):

These compounds were tested against recombinant DYRK1A kinase (Homo sapiens, UniProt Q13627) (assay: DYRK1A kinase assay (Ser/Thr 18 peptide Z-lyte FRET)). Settings: DYRK1A kinase activity; 15 μM ATP, 4 μM Ser/Thr peptide 18, one hour at room temperature.
Type: biochemical
Experimental: Representative compounds were screened using the assay procedure for DYRK1A kinase activity as described below.
Each compound was dissolved in DMSO as a 10 mM stock and used to prepare compound source plates. Serial dilution (1:3, 11-point dose-response curves from 10 μM to 0.00016 μM) and compound transfer was performed using the ECHO 550 (Labcyte, Sunnyvale, Calif.) into 1536-well black-walled round bottom plates (Corning).
The DYRK1A kinase assay was run using the Ser/Thr 18 peptide Z-lyte assay kit according to manufacturer's instructions (Life Technologies—a Division of Thermo-Fisher). This is a non-radioactive assay using fluorescence resonance energy transfer (FRET) between coumarin and fluorescein to detect kinase activity which is represented as a ratio of coumarin emission/fluorescein emission.
Briefly, recombinant DYRK1A kinase, ATP and Ser/Thr peptide 18 were prepared in 1× Kinase buffer to final concentrations of 0.25 μg/mL, 15 μM, and 4 μM respectively. The mixture was allowed to incubate with the representative compounds for one hour at room temperature. All reactions were performed in duplicate. Unphosphorylated (“0% Control”) and phosphorylated (“100% control”) forms of Ser/Thr 18 served as control reactions. Additionally, an 11-point dose-response curve of Staurosporine (1 uM top) was run to serve as a positive compound control.
After incubation, Development Reagent A was diluted in Development Buffer then added to the reaction and allowed to further incubate for one hour at room temperature. The plate was read at Ex 400 Em 455 to detect the coumarin signal and Ex 400 Em 520 to measure the signal (EnVision Multilabel Plate Reader, PerkinElmer).
The Emission ratio (Em) was calculated as a ratio of the coumarin (C) emission signal (at 445 nm)/Fluorescein (F) emission signal (at 520 nm). The percent phosphorylation was then calculated using the following formula: [1−((Em ratio×F100%)−C100%)/((C0%−C100%)+(Em ratio×(F100%−F0%)))]. Dose-response curves were generated, and inhibitory concentration (IC50) values were calculated using non-linear regression curve fit in the Dotmatics' Studies Software (Bishops Stortford, UK).

| Compound | EC50 |
| --- | --- |
| O=C(NC1CCN(Cc2ccccn2)CC1)c1cnn2ccc(-c3c[nH]c4ncccc34)cc12 [Compound 51, N-(1-(Pyridin-2-ylmethyl)piperidin-4-yl)-5-(1H-pyrrolo[2,3-b]pyridin-3-yl)pyrazolo[1,5-a]pyridine-3-carboxamide] | 1 nM |
| O=C(Nc1cccnc1)c1cnn2ccc(-c3c[nH]c4ncccc34)cc12 [Compound 52, N-(Pyridin-3-yl)-5-(1H-pyrrolo[2,3-b]pyridin-3-yl)pyrazolo[1,5-a]pyridine-3-carboxamide] | 2 nM |
| O=C(c1cnn2ccc(-c3c[nH]c4ncccc34)cc12)N1CCCCC1 [Compound 53, (5-(1H-Pyrrolo[2,3-b]pyridin-3-yl)pyrazolo[1,5-a]pyridin-3-yl) (piperidin-1-yl)methanone] | 7 nM |
| CN1CCN(C2CCN(C(=O)c3cnn4ccc(-c5c[nH]c6ncccc56)cc34)CC2)CC1 [Compound 54, (5-(1H-Pyrrolo[2,3-b]pyridin-3-yl)pyrazolo[1,5-a]pyridin-3-yl)(4-(4-methylpiperazin-1-yl)piperidin-1-yl)methanone] | 18 nM |
| CN1CCN(C(=O)c2cnn3ccc(-c4c[nH]c5ncccc45)cc23)CC1 [Compound 55, (5-(1H-Pyrrolo[2,3-b]pyridin-3-yl)pyrazolo[1,5-a]pyridin-3-yl)(4-methylpiperazin-1-yl)methanone] | 4 nM |
| O=C(c1cnn2ccc(-c3c[nH]c4ncccc34)cc12)N1CCN(C2CC2)CC1 [Compound 56, (5-(1H-Pyrrolo[2,3-b]pyridin-3-yl)pyrazolo[1,5-a]pyridin-3-yl)(4-cyclopropylpiperazin-1-yl)methanone] | 7 nM |
| O=C(c1cnn2ccc(-c3c[nH]c4ncccc34)cc12)N1CCNC2(CC2)C1 [Compound 57, (5-(1H-Pyrrolo[2,3-b]pyridin-3-yl)pyrazolo[1,5-a]pyridin-3-yl)(4,7-diazaspiro[2.5]octan-7-yl)methanone] | 3 nM |
| CN1C2CCC1CN(C(=O)c1cnn3ccc(-c4c[nH]c5ncccc45)cc13)C2 [Compound 58, (5-(1H-Pyrrolo[2,3-b]pyridin-3-yl)pyrazolo[1,5-a]pyridin-3-yl)(8-methyl-3,8-diazabicyclo[3.2.1]octan-3-yl)methanone] | 12 nM |
| CN1CC2CCC(C1)N2C(=O)c1cnn2ccc(-c3c[nH]c4ncccc34)cc12 [Compound 59, (5-(1H-Pyrrolo[2,3-b]pyridin-3-yl)pyrazolo[1,5-a]pyridin-3-yl)(3-methyl-3,8-diazabicyclo[3.2.1]octan-8-yl)methanone] | 81 nM |
| O=C(c1cnn2ccc(-c3c[nH]c4ncccc34)cc12)N1CCOCC1 [Compound 60, (5-(1H-Pyrrolo[2,3-b]pyridin-3-yl)pyrazolo[1,5-a]pyridin-3-yl) (morpholino)methanone] | 6 nM |
| O=C(c1cnn2ccc(-c3c[nH]c4ncccc34)cc12)N1CC2(CNC2)C1 [Compound 61, (5-(1H-Pyrrolo[2,3-b]pyridin-3-yl)pyrazolo[1,5-a]pyridin-3-yl)(2,6-diazaspiro[3.3]heptan-2-yl)methanone] | 4 nM |
| CN1CC2(C1)CN(C(=O)c1cnn3ccc(-c4c[nH]c5ncccc45)cc13)C2 [Compound 62, (5-(1H-Pyrrolo[2,3-b]pyridin-3-yl)pyrazolo[1,5-a]pyridin-3-yl)(6-methyl-2,6-diazaspiro[3.3]heptan-2-yl)methanone] | 5 nM |
| O=C(c1cnn2ccc(-c3c[nH]c4ncccc34)cc12)N1CC2CNCC2C1 (stereo not shown) [Compound 63, (5-(1H-Pyrrolo[2,3-b]pyridin-3-yl)pyrazolo[1,5-a]pyridin-3-yl) (hexahydropyrrolo[3,4-c]pyrrol-2(1H)-yl)methanone] | 5 nM |
| CN1CC2CN(C(=O)c3cnn4ccc(-c5c[nH]c6ncccc56)cc34)CC2C1 (stereo not shown) [Compound 64, (5-(1H-Pyrrolo[2,3-b]pyridin-3-yl)pyrazolo[1,5-a]pyridin-3-yl)(5-methylhexahydropyrrolo[3,4-c]pyrrol-2(1H)-yl)methanone] | 6 nM |
| c1cnc2[nH]cc(-c3ccn4nccc4n3)c2c1 [Compound 65, 5-(1H-Pyrrolo[2,3-b]pyridin-3-yl)pyrazolo[1,5-a]pyrimidine] | 7 nM |
| COc1ccc(-c2c[nH]c3ncccc23)cn1 [Compound 67, 3-(6-Methoxypyridin-3-yl)-1H-pyrrolo[2,3-b]pyridine] | 19 nM |
| COc1ccc(-c2c[nH]c3ncccc23)nn1 [Compound 69, 3-(6-Methoxypyridazin-3-yl)-1H-pyrrolo[2,3-b]pyridine] | 73 nM |
| CN1CCC(Nc2cncc(-c3c[nH]c4ncccc34)n2)CC1 [Compound 70, N-(1-Methylpiperidin-4-yl)-6-(1H-pyrrolo[2,3-b]pyridin-3-yl)pyrazin-2-amine] | 13 nM |
| CC1(C)COc2ccc(-c3c[nH]c4ncccc34)cc21 [Compound 72, 3-(3,3-Dimethyl-2,3-dihydrobenzofuran-5-yl)-1H-pyrrolo[2,3-b] pyridine] | 91 nM |
| CN1Cc2cc(-c3c[nH]c4ncccc34)ccc2C1=O [Compound 76, 2-Methyl-5-(1H-pyrrolo[2,3-b]pyridin-3-yl)isoindolin-1-one] | 31 nM |
| O=C1NC2(CCCCC2)c2cc(-c3c[nH]c4ncccc34)ccc21 [Compound 78, 6′-(1H-Pyrrolo[2,3-b]pyridin-3-yl)spiro[cyclohexane-1,1′-isoindolin]-3′-one] | 6 nM |
| c1cnc2[nH]cc(-c3ccc4c(c3)CCCO4)c2c1 [Compound 79, 3-(Chroman-6-yl)-1H-pyrrolo[2,3-b]pyridine] | 24 nM |

Results, then the compound that gave them:

| EC50 | Compound |
| --- | --- |
| 31 nM | CC1(C)CC(=O)c2ccc(-c3c[nH]c4ncccc34)cc2O1 [Compound 80, 2,2-Dimethyl-7-(1H-pyrrolo[2,3-b]pyridin-3-yl)chroman-4-one] |
| 6 nM | CC1(C)CNC(=O)c2ccc(-c3c[nH]c4ncccc34)cc21 [Compound 82, 4,4-Dimethyl-6-(1H-pyrrolo[2,3-b]pyridin-3-yl)-3,4-dihydroisoquinolin-1(2H)-one] |
| 29 nM | O=C1CC2(CCNCC2)Oc2cc(-c3c[nH]c4ncccc34)ccc21 [Compound 83, 7-(1H-Pyrrolo[2,3-b]pyridin-3-yl)spiro[chromane-2,4′-piperidin]-4-one] |
| 3 nM | O=C1NCCOc2cc(-c3c[nH]c4ncccc34)ccc21 [Compound 84, 8-(1H-Pyrrolo[2,3-b]pyridin-3-yl)-3,4-dihydrobenzo[f][1,4]oxazepin-5(2H)-one] |
| 25 nM | CN1CCOc2cc(-c3c[nH]c4ncccc34)ccc2C1=O [Compound 85, 4-Methyl-8-(1H-pyrrolo[2,3-b]pyridin-3-yl)-3,4-dihydrobenzo[f] [1,4]oxazepin-5(2H)-one] |
| 7 nM | O=C1NCCOc2c1ccc(-c1c[nH]c3ncccc13)c2F [Compound 86, 9-Fluoro-8-(1H-pyrrolo[2,3-b]pyridin-3-yl)-3,4-dihydrobenzo[f] [1,4]oxazepin-5(2H)-one] |
| 2 nM | c1cnc2ccc(-c3c[nH]c4ncccc34)cc2c1 [Compound 87, 6-(1H-Pyrrolo[2,3-b]pyridin-3-yl)quinoline] |
| 3 nM | O=C(c1ccnc2ccc(-c3c[nH]c4ncccc34)cc12)N1CCNC2(CC2)C1 [Compound 88, (6-(1H-Pyrrolo[2,3-b]pyridin-3-yl)quinolin-4-yl)(4,7-diazaspiro[2.5]octan-7-yl)methanone] |
| 1 nM | CN1CCC(NC(=O)c2ccnc3ccc(-c4c[nH]c5ncccc45)cc23)CC1 [Compound 89, N-(1-Methylpiperidin-4-yl)-6-(1H-pyrrolo[2,3-b]pyridin-3-yl) quinoline-4-carboxamide] |
| 3 nM | c1cnc2[nH]cc(-c3ccc4nccnc4c3)c2c1 [Compound 90, 6-(1H-Pyrrolo[2,3-b]pyridin-3-yl)quinoxaline] |
| 3 nM | CN1CCC(Oc2cnc3ccc(-c4c[nH]c5ncccc45)cc3n2)CC1 [Compound 91, 2-((1-Methylpiperidin-4-yl)oxy)-7-(1H-pyrrolo[2,3-b]pyridin-3-yl) quinoxaline] |
| 2 nM | CN1CCN(c2ncnc3ccc(-c4c[nH]c5ncccc45)cc23)CC1 [Compound 95, 4-(4-Methylpiperazin-1-yl)-6-(1H-pyrrolo[2,3-b]pyridin-3-yl) quinazoline] |
| 1 nM | c1cnc2[nH]cc(-c3ccc4ncnc(N5CCNC6(CC6)C5)c4c3)c2c1 [Compound 96, 6-(1H-Pyrrolo[2,3-b]pyridin-3-yl)-4-(4,7-diazaspiro[2.5]octan-7-yl) quinazoline] |
| 2 nM | c1cnc2[nH]cc(-c3ccc4ncnc(N5CCNC6(CCC6)C5)c4c3)c2c1 [Compound 97, 6-(1H-Pyrrolo[2,3-b]pyridin-3-yl)-4-(5,8-diazaspiro[3.5]nonan-8-yl) quinazoline] |
| 2 nM | c1cnc2[nH]cc(-c3ccc4ncnc(N5CCNC6(CCCC6)C5)c4c3)c2c1 [Compound 98, 9-(6-(1H-Pyrrolo[2,3-b]pyridin-3-yl)quinazolin-4-yl)-6,9-diazaspiro [4.5]decane] |
